Read-outs that look alike come from different tables or passages of the source. A value given as a limit tells only on which side of the number the result lay.

Results on ten compounds are retold here after patent US20230227466A1, “SUBSTITUTED THIENOPYRIMIDINES THAT INTERACT WITH THE RAS SUPERFAMILY FOR THE TREATMENT OF CANCERS, INFLAMMATORY DISEASES, RASOPATHIES, AND FIBROTIC DISEASE” (SHY Therapeutics, LLC, priority 2020, published 2023).

In assay [1] the test system is Akt phosphorylation in Panc-1 cells. Kind of assay: Western AKT cell-based phosphorylation assay. Also noted: species or system human. To be noted: at 10 μM, values in brackets < > are activation %, not inhibition. The procedure:
Human Tumor-Derived Pancreatic Cancer Cell Line Panc-1 was Purchased from
American Type Culture Collection and grown in complete DMEM-High Glucose supplemented with penicillin (100 U/mL), streptomycin (100 μg/mL), and 10% heat-inactivated FBS at 37° C. in a humidified incubator with 5% CO2.
(§1) Method: Cells were plated at 350000 cells/well density in a 12-well plate, allowed 3 hours to adhere to the plate, then starved in the appropriate medium in the presence of 0.5% FBS overnight. The small molecules to be tested were added to the cells in the final concentration of 10 μM in the presence of 0.3% DMSO for 6 hours incubation at 37° C. Next, cells were stimulated with 1.5 ng/ml EGF for 15 minutes then cells were lysed with lysis buffer containing 1% Triton X-100, EDTA, and Halt™ Protease & Phosphatase Inhibitor Cocktail (Thermo Scientific). Protein concentration was assessed by BCA protein assay (Thermo Scientific). Phosphorylation level of Akt was determined by western blot.
(§2) Western blot protocol: Equal amounts of protein (15-50 μg) were separated by SDS-PAGE and transferred to nitrocellulose membranes (Invitrogen by Thermo Fisher Scientific). The membrane was stained with Ponceau S Stain (Boston BioProducts) to verify uniform protein loading. Membranes were blocked with 10% milk and phosphorylation levels of Akt were assessed by incubating overnight at 4° C. with anti-phospho-Akt (Ser473) antibody (Cell Signaling) followed by HRP-conjugated secondary antibody (Jackson Immunoresearch, West Grove, Pa.). Bands were incubated in Amersham ECL Prime Western Blotting Detection Reagent (GE Healthcare) and visualized using the ChemiDoc MP imaging system (Bio-Rad).

In assay [2] the test system is ERK1/2 phosphorylation in Panc-1 cells. Kind of assay: Western ERK1/2 cell-based phosphorylation assay. To be noted: at 10 μM, values in brackets < > are activation %, not inhibition. Set-up: species or system human. On the procedure: Cell lines: Human tumor-derived pancreatic cancer cell line Panc-1 was purchased from American Type Culture Collection and grown in complete DMEM-High Glucose, supplemented with penicillin (100 U/mL), streptomycin (100 μg/mL), and 10% heat-inactivated FBS at 37° C. in a humidified incubator with 5% CO2.
as §1, with “C. For IC50 value determination, serial dilutions of compounds were added to cells under the same conditions.” for “C.”, “ERK1/2” for “Akt”
as §2, with “ERK1/2” for “Akt”, “anti-phospho-p44/42 (Thr202/Tyr204)” for “anti-phospho-Akt (Ser473)”, “(Bio-Rad). Protocol for Western AKT cell-based phosphorylation assay” for “(Bio-Rad).”

A further assay addresses Rac-1 (Homo sapiens, UniProt P63000). Put plainly: Ras GTP binding domain inhibition assay (labeled-GTP competition, cell-free). Set-up: made in house. The procedure, abridged: (§3)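 Immobilized His-tagged protein (Ni plate, 10-30 μg/mL, overnight 4° C); compound 20 μM or dilution series, 1% DMSO, 3 h RT, ±Sos 556-1049 last hour; Cy3/Cy5-GTP 100 nM, 45 min RT; 3× wash; bound fluorescence read.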

A further assay addresses Rho-A (Homo sapiens, UniProt P61586). Described as above. Set-up: made in house. Put shortly: as §3
The target in another assay is KRas wild type (Homo sapiens, UniProt P01116). The assay is described as above. Also noted: made in house. The procedure, abridged:
as §3

[3] abbreviates: with SOS, read-out: Rac-1 + SOS: % inh.
[4] abbreviates: without SOS, read-out: Rac-1: % inh.
Where [5] appears, read: with SOS, read-out: Rho-A + SOS: % inh.
The mark [6] stands for this setting: without SOS, read-out: Rho-A: % inh.
[7] abbreviates: with SOS, read-out: KRas wild type + SOS: % inh.
Where [8] appears, read: without SOS, read-out: KRas wild type: % inh.

Turning to `COCC1COCCN1c1nc(-c2nccn2C)nc2sc(-c3ccn(C(C)C)n3)c(C)c12` (racemic) [Compound 41, rac-4-(6-(1-Isopropyl-1H-pyrazol-3-yl)-5-methyl-2-(1-methyl-1H-imidazol-2-yl)thieno[2,3-d]pyrimidin-4-yl)-3-(methoxymethyl)morpholine], the “% inh of AKT phosphorylation in PANC-1” value in assay [1] is reported as 0 (0% inhibition). In addition, the “% inh of ERK1/2 phosphorylation in PANC-1” value in assay [2] is on record as 0 (0% inhibition). Besides, the inhibition at 20 µM was 76 to 100% on Rac-1 (setting [3]); 76 to 100% at Rac-1 (setting [4]); 76 to 100% at Rho-A (setting [5]); 51 to 75% on Rho-A (setting [6]); 51 to 75% at KRas wild type (setting [7]); 51 to 75% on KRas wild type (setting [8]).
Take `CO[C@H]1CC(Nc2nc(-c3nccn3C)nc3sc(-c4ccn(C(C)C)n4)c(C)c23)C[C@@H]1OC` (racemic) [Compound 44, rac-N-((3S,4S)-3,4-Dimethoxycyclopentyl)-6-(1-isopropyl-1H-pyrazol-3-yl)-5-methyl-2-(1-methyl-1H-imidazol-2-yl)thieno[2,3-d]pyrimidin-4-amine]: the “% inh of AKT phosphorylation in PANC-1” value in assay [1] was “<A>”. Also, the “% inh of ERK1/2 phosphorylation in PANC-1” value in assay [2] is “D (76-100% inhibition)”. In addition, the inhibition at 20 µM on Rac-1 (setting [3]), at Rac-1 (setting [4]), on Rho-A (setting [5]), on Rho-A (setting [6]), at KRas wild type (setting [7]) and at KRas wild type (setting [8]) was 76 to 100% each time.
In the case of `COCC1CN(c2nc(-c3nccn3C)nc3sc(-c4ccn(C(C)C)n4)c(C)c23)CCO1` (racemic) [Compound 45, rac-4-(6-(1-Isopropyl-1H-pyrazol-3-yl)-5-methyl-2-(1-methyl-1H-imidazol-2-yl)thieno[2,3-d]pyrimidin-4-yl)-2-(methoxymethyl)morpholine], the “% inh of AKT phosphorylation in PANC-1” value in assay [1] is “<D>”. Moreover, the “% inh of ERK1/2 phosphorylation in PANC-1” value in assay [2] was “B (26-50% inhibition)”. In addition, the inhibition at 20 µM at Rac-1 (setting [3]), on Rac-1 (setting [4]), on Rho-A (setting [5]), on Rho-A (setting [6]), on KRas wild type (setting [7]) and at KRas wild type (setting [8]) was 76 to 100% throughout.
As for `Cc1c(-c2ccn(C(C)C)n2)sc2nc(-c3nccn3C)nc(NCCC3CCC(=O)N3)c12` (racemic) [Compound 56, rac-5-(2-((6-(1-Isopropyl-1H-pyrazol-3-yl)-5-methyl-2-(1-methyl-1H-imidazol-2-yl)thieno[2,3-d]pyrimidin-4-yl)amino)ethyl)pyrrolidin-2-one], the “% inh of AKT phosphorylation in PANC-1” value in assay [1] was 0 (0% inhibition). Moreover, in assay [2], the “% inh of ERK1/2 phosphorylation in PANC-1” value was 0 (0% inhibition). Moreover, the inhibition at 20 µM on Rac-1 (setting [4]), at Rho-A (setting [6]), on KRas wild type (setting [7]) and at KRas wild type (setting [8]) was 76 to 100% in each case.
For `CO[C@@H]1CC[C@H]1CNc1nc(-c2nccn2C)nc2sc(-c3ccn(C(C)C)n3)c(C)c12` (racemic) [Compound 61, rac-6-(1-Isopropyl-1H-pyrazol-3-yl)-N-(((1S,2R)-2-methoxycyclobutyl)methyl)-5-methyl-2-(1-methyl-1H-imidazol-2-yl)thieno[2,3-d]pyrimidin-4-amine], the “% inh of AKT phosphorylation in PANC-1” value in assay [1] was 0 (0% inhibition). For the same compound, the “% inh of ERK1/2 phosphorylation in PANC-1” value in assay [2] was “D (76-100% inhibition)”. Also, the inhibition at 20 µM on Rac-1 (setting [4]) is 26 to 50%; on Rho-A (setting [6]), 51 to 75%; at KRas wild type (setting [7]), 76 to 100%; at KRas wild type (setting [8]) it was 76 to 100%.
Take `Cc1c(-c2ccn(C(C)C)n2)sc2nc(-c3nccn3C)nc(N3CCC(COC(C)C)C3)c12` (racemic) [Compound 62, rac-4-(3-(Isopropoxymethyl)pyrrolidin-1-yl)-6-(1-isopropyl-1H-pyrazol-3-yl)-5-methyl-2-(1-methyl-1H-imidazol-2-yl)thieno[2,3-d]pyrimidine]: the “% inh of AKT phosphorylation in PANC-1” value in assay [1] is on record as “B (26-50% inhibition)”. For the same compound, the “% inh of ERK1/2 phosphorylation in PANC-1” value in assay [2] is recorded as “D (76-100% inhibition)”. In addition, the inhibition at 20 µM on Rac-1 (setting [4]) was 1 to 25%; at Rho-A (setting [6]), 76 to 100%; at KRas wild type (setting [7]), 51 to 75%; at KRas wild type (setting [8]), 51 to 75%.
For the compound `COC[C@@H]1CC[C@@H]1CNc1nc(-c2nccn2C)nc2sc(-c3ccn(C(C)C)n3)c(C)c12` (racemic) [Compound 63, rac-6-(1-Isopropyl-1H-pyrazol-3-y)-N-(((1S,2R)-2-(methoxymethyl)cyclobutyl)methyl)-5-methyl-2-(1-methyl-1H-imidazol-2-yl)thieno[2,3-d]pyrimidin-4-amine], in assay [1], the “% inh of AKT phosphorylation in PANC-1” value was “C (51-75% inhibition)”. In assay [2], the “% inh of ERK1/2 phosphorylation in PANC-1” value is “D (76-100% inhibition)”. In addition, the inhibition at 20 µM fell in the range of 26 to 50% on Rac-1 (setting [4]), 51 to 75% on Rho-A (setting [6]), 26 to 50% on KRas wild type (setting [7]) and 51 to 75% at KRas wild type (setting [8]).
Consider `CO[C@H]1CC[C@@H](Nc2nc(-c3ccccn3)nc3sc(-c4ccn(C(C)C)n4)c(C)c23)C1` (racemic) [Compound 69, Rac-6-(1-isopropyl-1H-pyrazol-3-yl)-N-((1R,3S)-3-methoxycyclopentyl)-5-methyl-2-(pyridine-2-yl)thieno[2,3-d]pyrimidin-4-amine], for which, in assay [1], the “% inh of AKT phosphorylation in PANC-1” value is “D (76-100% inhibition)”. The “% inh of ERK1/2 phosphorylation in PANC-1” value in assay [2] is listed as “D (76-100% inhibition)”. Further, the inhibition at 20 µM was in the range of 26 to 50% at Rac-1 (setting [3]); 1 to 25% at Rac-1 (setting [4]); 51 to 75% at Rho-A (setting [5]); 51 to 75% on Rho-A (setting [6]); 51 to 75% on KRas wild type (setting [7]); 51 to 75% on KRas wild type (setting [8]).
In the case of `COC1CCCN(c2nc(-c3ccccn3)nc3sc(-c4ccn(C(C)C)n4)c(C)c23)C1` (racemic) [Compound 70, Rac-6-(1-Isopropyl-1H-pyrazol-3-yl)-4-(3-methoxypiperidin-1-yl)-5-methyl-2-(pyridin-2-yl)thieno[2,3-d]pyrimidine], the “% inh of AKT phosphorylation in PANC-1” value in assay [1] is 0 (0% inhibition). Also, in assay [2], the “% inh of ERK1/2 phosphorylation in PANC-1” value is recorded as 0 (0% inhibition). Moreover, the inhibition at 20 µM at Rac-1 (setting [3]) fell in the range of 26 to 50%; at Rac-1 (setting [4]), 26 to 50%; at Rho-A (setting [5]) it was 51 to 75%; at Rho-A (setting [6]), 51 to 75%; on KRas wild type (setting [7]), 26 to 50%; on KRas wild type (setting [8]), 26 to 50%.
`COCC1CCN(c2nc(-c3ccccn3)nc3sc(-c4ccn(C(C)C)n4)c(C)c23)C1` (racemic) [Compound 71, Rac-6-(1-Isopropyl-1H-pyrazol-3-yl)-4-(3-(methoxymethyl)pyrrolidin-1-yl)-5-methyl-2-(pyridin-2-yl)thieno[2,3-d]pyrimidine]: the “% inh of AKT phosphorylation in PANC-1” value in assay [1] is given as “D (76-100% inhibition)”. Besides, the “% inh of ERK1/2 phosphorylation in PANC-1” value in assay [2] is “D (76-100% inhibition)”. Also, the inhibition at 20 µM was 0% at Rac-1 (setting [4]), 76 to 100% on Rho-A (setting [6]), 26 to 50% at KRas wild type (setting [7]) and 26 to 50% at KRas wild type (setting [8]).
